Measurements published in US7361671B2, “Substituted heteroarylalkanoic acids” (The Institute for Pharmaceutical Discovery, Inc., priority 2001, dated 2008).
Where a name gives a salt, the structure may show the parent alone. One block for each molecule: values may come before it.

Assays:
[1] = target: human aldose reductase (hALR2) (Homo sapiens, UniProt P15121); experiment: inhibition of human aldose reductase (hALR2) activity, methods similar to Butera et al.; type: biochemical; details: concentration to inhibit activity by 50%, read-out: hAR-#1 (aldose)
Procedure: Representative compounds of the invention are tested for their potency, selectivity and efficacy as inhibitors of human aldose reductase. […] Using this assay, the concentrations required to inhibit human aldose reductase (hALR2) activity by 50% (IC50) are determined.

blood uric acid levels = experiment: Uricosuric activity in the chimpanzee: concentrations of uric acid in serum; type: in vivo; details: single oral 4 mg/kg dose; for Concentrations of uric acid in serum, mean: mean of chimps
Procedure: (§1) Compound of Example 14 was administered to chimpanzees orally as a single 4 mg/kg does. While four animals were dosed, complete data was not collected for one animal (Chimp #4), as an adverse reaction to anesthesia required early termination of this animal from the study.

[2] = system: urinary excretion of uric acid; experiment: Uricosuric activity in the chimpanzee: amount of uric acid excreted in the urine; type: in vivo; details: single oral 4 mg/kg dose; for Amount of uric acid excreted in the urine in 24 hour intervals, mean: mean of chimps
Procedure: as §1

- melting point: 110 °C (dec.)
Structure (SMILES): O=C(O)Cc1cc(Cc2nc3c(F)c(F)cc(F)c3s2)cnc1-c1ccccc1 (as salt: hydrochloride) [Example 13, 2-phenyl-5-(4,5,7-trifluoro-benzothiazol-2-ylmethyl)-pyridin-3-yl-acetic acid hydrochloride]

- melting point: 196 to 197 °C
Structure (SMILES): O=C(O)Cc1cncc(Cc2nc3c(F)c(F)cc(F)c3s2)c1 (as salt: hydrochloride) [Example 8, 5-(4,5,7-trifluoro-benzothiazol-2-ylmethyl)-pyridin-3-yl-acetic acid hydrochloride]

- melting point: 185 °C (dec.)
Structure (SMILES): O=C(O)Cc1cnc(Cc2ccccc2)c(Cc2nc3c(F)c(F)cc(F)c3s2)c1 (as salt: hydrochloride) [Example 16, 6-Benzyl-5-(4,5,7-trifluoro-benzothiazol-2-ylmethyl)-pyridin-3-yl-acetic acid hydrochloride]

- IC50 [1]: 0.004 µM
- melting point: 211 °C (dec.)
Structure (SMILES): Cc1nc(C)c(Cc2nc3c(F)c(F)cc(F)c3s2)cc1CC(=O)O.Cl [Example 4, 2,6-Dimethyl-5-(4,5,7-trifluoro-benzothiazole-2-ylmethyl)-pyridin-3-yl-acetic acid hydrochloride]

- melting point: 193 to 195 °C
Structure (SMILES): CCc1c(CC(=O)O)c(C)nc(C)c1Cc1nc2c(F)c(F)cc(F)c2s1 (as salt: hydrochloride) [Example 10, 2,6-dimethyl-4-ethyl-5-(4,5,7-trifluoro-benzothiazol-2-ylmethyl)-pyridin-3-yl-acetic acid hydrochloride]

- IC50 [1]: 0.027 µM
- melting point: 132 to 133 °C
Structure (SMILES): O=C(O)Cc1ccc(Cc2nc3c(F)c(F)cc(F)c3s2)s1 [Example 19, [5-(4,5,7-trifluoro-benzothiazol-2-ylmethyl)-thiophen-2-yl]-acetic acid]

- melting point: 205 to 207 °C (dec.)
Structure (SMILES): O=C(O)Cc1cnc(-c2ccccc2)c(Cc2nc3c(F)c(F)cc(F)c3s2)c1 (as salt: hydrochloride) [Example 15, 6-Phenyl-5-(4,5,7-trifluoro-benzothiazol-2-ylmethyl)-pyridin-3-yl-acetic acid hydrochloride]

- IC50 [1]: 0.024 µM
- melting point: 142 to 144 °C
Structure (SMILES): O=C(O)Cc1ccsc1Cc1nc2c(F)c(F)cc(F)c2s1 [Example 23, [2-(4,5,7-trifluoro-benzothiazol-2-ylmethyl)-thiophen-3-yl]-acetic acid]

Structure (SMILES): CCc1ncc(CC(=O)O)cc1Cc1nc2c(F)c(F)cc(F)c2s1 (as salt: hydrochloride) [Example 14, 6-ethyl-5-(4,5,7-trifluoro-benzothiazol-2-ylmethyl)-pyridin-3-yl-acetic acid hydrochloride]
- melting point: 220 °C (dec.)

- melting point: 131 to 132 °C
Structure (SMILES): O=C(O)Cc1cc(Cc2nc3cc(C(F)(F)F)ccc3s2)cs1 (as salt: hydrochloride)

- melting point: 216 to 217 °C
Structure (SMILES): Cc1nc(C)c(Cc2nc3c(F)c(F)cc(F)c3s2)c(C)c1CC(=O)O (as salt: hydrochloride) [Example 9, 2,4,6-trimethyl-5-(4,5,7-trifluoro-benzothiazol-2-ylmethyl)-pyridin-3-yl-acetic acid hydrochloride]

Structure (SMILES): CCc1ncc(CC(=O)O)cc1Cc1nc2c(F)c(F)cc(F)c2s1 [Example 14, 6-ethyl-5-(4,5,7-trifluoro-benzothiazol-2-ylmethyl)-pyridin-3-yl-acetic acid hydrochloride]
- IC50 [1]: 0.007 µM
- Concentrations of uric acid in serum (blood uric acid levels; Chimp #1, 0 hours): 3.0 mg/dL
- Concentrations of uric acid in serum (blood uric acid levels; Chimp #1, 0.25 hours): 3.0 mg/dL
- Concentrations of uric acid in serum (blood uric acid levels; Chimp #1, 0.50 hours): 3.0 mg/dL
- Concentrations of uric acid in serum (blood uric acid levels; Chimp #1, 1.0 hours): 3.0 mg/dL
- Concentrations of uric acid in serum (blood uric acid levels; Chimp #1, 2.0 hours): 2.8 mg/dL
- Concentrations of uric acid in serum (blood uric acid levels; Chimp #1, 6.0 hours): 2.2 mg/dL
- Concentrations of uric acid in serum (blood uric acid levels; Chimp #1, 12 hours): 1.9 mg/dL
- Concentrations of uric acid in serum (blood uric acid levels; Chimp #1, 24 hours): 2.3 mg/dL
- Concentrations of uric acid in serum (blood uric acid levels; Chimp #1, 48 hours): 3.4 mg/dL
- Concentrations of uric acid in serum (blood uric acid levels; Chimp #1, 72 hours): 3.2 mg/dL
- Concentrations of uric acid in serum (blood uric acid levels; Chimp #1, Baseline): 2.9 mg/dL
- Concentrations of uric acid in serum (blood uric acid levels; Chimp #2, 0 hours): 1.7 mg/dL
- Concentrations of uric acid in serum (blood uric acid levels; Chimp #2, 0.25 hours): 1.8 mg/dL
- Concentrations of uric acid in serum (blood uric acid levels; Chimp #2, 0.50 hours): 1.8 mg/dL
- Concentrations of uric acid in serum (blood uric acid levels; Chimp #2, 1.0 hours): 1.8 mg/dL
- Concentrations of uric acid in serum (blood uric acid levels; Chimp #2, 2.0 hours): 1.7 mg/dL
- Concentrations of uric acid in serum (blood uric acid levels; Chimp #2, 6.0 hours): 1.2 mg/dL
- Concentrations of uric acid in serum (blood uric acid levels; Chimp #2, 12 hours): 0.9 mg/dL
- Concentrations of uric acid in serum (blood uric acid levels; Chimp #2, 24 hours): 1.4 mg/dL
- Concentrations of uric acid in serum (blood uric acid levels; Chimp #2, 48 hours): 1.2 mg/dL
- Concentrations of uric acid in serum (blood uric acid levels; Chimp #2, 72 hours): 1.4 mg/dL
- Concentrations of uric acid in serum (blood uric acid levels; Chimp #2, Baseline): 1.9 mg/dL
- Concentrations of uric acid in serum (blood uric acid levels; Chimp #3, 0 hours): 2.2 mg/dL
- Concentrations of uric acid in serum (blood uric acid levels; Chimp #3, 0.25 hours): 2.3 mg/dL
- Concentrations of uric acid in serum (blood uric acid levels; Chimp #3, 0.50 hours): 2.3 mg/dL
- Concentrations of uric acid in serum (blood uric acid levels; Chimp #3, 1.0 hours): 2.1 mg/dL
- Concentrations of uric acid in serum (blood uric acid levels; Chimp #3, 2.0 hours): 1.9 mg/dL
- Concentrations of uric acid in serum (blood uric acid levels; Chimp #3, 6.0 hours): 1.6 mg/dL
- Concentrations of uric acid in serum (blood uric acid levels; Chimp #3, 12 hours): 1.6 mg/dL
- Concentrations of uric acid in serum (blood uric acid levels; Chimp #3, 24 hours): 1.9 mg/dL
- Concentrations of uric acid in serum (blood uric acid levels; Chimp #3, 48 hours): 1.9 mg/dL
- Concentrations of uric acid in serum (blood uric acid levels; Chimp #3, 72 hours): 2.4 mg/dL
- Concentrations of uric acid in serum (blood uric acid levels; Chimp #3, Baseline): 2.3 mg/dL
- Concentrations of uric acid in serum (blood uric acid levels; Chimp #4, 0 hours): 2.5 mg/dL
- Concentrations of uric acid in serum (blood uric acid levels; Chimp #4, 0.25 hours): 2.6 mg/dL
- Concentrations of uric acid in serum (blood uric acid levels; Chimp #4, 0.50 hours): 2.5 mg/dL
- Concentrations of uric acid in serum (blood uric acid levels; Chimp #4, 1.0 hours): 2.7 mg/dL
- Concentrations of uric acid in serum (blood uric acid levels; Chimp #4, 2.0 hours): 2.3 mg/dL
- Concentrations of uric acid in serum (blood uric acid levels; Chimp #4, 6.0 hours): 1.8 mg/dL
- Concentrations of uric acid in serum (blood uric acid levels; Chimp #4, 12 hours): 1.7 mg/dL
- Concentrations of uric acid in serum (blood uric acid levels; Chimp #4, Baseline): 2.5 mg/dL
- maximal lowering of blood uric acid levels (blood uric acid levels; chimpanzee, average of three animals, at approximately 12 hours following dosage): about 44%
- uricosuric effect (blood uric acid levels; chimpanzee, data from three animals): clear uricosuric effect
- Concentrations of uric acid in serum, mean (blood uric acid levels; 0 hours): 2.4 mg/dL
- Concentrations of uric acid in serum, mean (blood uric acid levels; 0.25 hours): 2.4 mg/dL
- Concentrations of uric acid in serum, mean (blood uric acid levels; 0.50 hours): 2.4 mg/dL
- Concentrations of uric acid in serum, mean (blood uric acid levels; 1.0 hours): 2.4 mg/dL
- Concentrations of uric acid in serum, mean (blood uric acid levels; 2.0 hours): 2.2 mg/dL
- Concentrations of uric acid in serum, mean (blood uric acid levels; 6.0 hours): 1.7 mg/dL
- Concentrations of uric acid in serum, mean (blood uric acid levels; 12 hours): 1.5 mg/dL
- Concentrations of uric acid in serum, mean (blood uric acid levels; 24 hours): 1.9 mg/dL
- Concentrations of uric acid in serum, mean (blood uric acid levels; 48 hours): 2.2 mg/dL
- Concentrations of uric acid in serum, mean (blood uric acid levels; 72 hours): 2.3 mg/dL
- Concentrations of uric acid in serum, mean (blood uric acid levels; Baseline): 2.4 mg/dL
- Amount of uric acid excreted in the urine in 24 hour intervals ([2]; Chimp #1, 0-24 hours): 1020 mg
- Amount of uric acid excreted in the urine in 24 hour intervals ([2]; Chimp #1, 24-48 hours): 686 mg
- Amount of uric acid excreted in the urine in 24 hour intervals ([2]; Chimp #1, 48-72 hours): 657 mg
- Amount of uric acid excreted in the urine in 24 hour intervals ([2]; Chimp #1, Baseline): 321 mg
- Amount of uric acid excreted in the urine in 24 hour intervals ([2]; Chimp #2, 0-24 hours): 758 mg
- Amount of uric acid excreted in the urine in 24 hour intervals ([2]; Chimp #2, 24-48 hours): 399 mg
- Amount of uric acid excreted in the urine in 24 hour intervals ([2]; Chimp #2, 48-72 hours): 290 mg
- Amount of uric acid excreted in the urine in 24 hour intervals ([2]; Chimp #2, Baseline): 474 mg
- Amount of uric acid excreted in the urine in 24 hour intervals ([2]; Chimp #3, 0-24 hours): 843 mg
- Amount of uric acid excreted in the urine in 24 hour intervals ([2]; Chimp #3, 24-48 hours): 189 mg
- Amount of uric acid excreted in the urine in 24 hour intervals ([2]; Chimp #3, 48-72 hours): 216 mg
- Amount of uric acid excreted in the urine in 24 hour intervals ([2]; Chimp #3, Baseline): 347 mg
- Amount of uric acid excreted in the urine in 24 hour intervals ([2]; Chimp #4, Baseline): 450 mg
- urinary excretion of uric acid ([2]; chimpanzee, over the first 24 hours following dosage): concomitant increase in the urinary excretion of uric acid
- Amount of uric acid excreted in the urine in 24 hour intervals, mean ([2]; 0-24 hours): 874 mg
- Amount of uric acid excreted in the urine in 24 hour intervals, mean ([2]; 24-48 hours): 425 mg
- Amount of uric acid excreted in the urine in 24 hour intervals, mean ([2]; 48-72 hours): 388 mg
- Amount of uric acid excreted in the urine in 24 hour intervals, mean ([2]; Baseline): 398 mg

- melting point: 175 °C (dec.)
Structure (SMILES): O=C(O)Cc1cc(Cc2nc3c(F)c(F)cc(F)c3s2)cnc1Cc1ccccc1 (as salt: hydrochloride) [Example 12, 2-benzyl-5-(4,5,7-trifluoro-benzothiazol-2-ylmethyl)-pyridin-3-yl-acetic acid hydrochloride]
